Test results published in patent publication US11130960B2, “Methods for conferring or enhancing herbicide resistance on plants and/or alga with protoporphyrinogen oxidase variants” (FARM HANNONG CO., LTD., priority 2014, dated 2021).

Legend:
Test in all cases: Seed germination / growth on ½ MS medium containing herbicide
CyPPO2 transformants = type: in vivo, Arabidopsis thaliana; conditions: CyPPO2 and BAR gene-inserted; ½ MS medium with 70 nM Tiafenacil, 50 uM glufosinate, or both
Protocol: (§1) To examine tiafenacil resistance of T2 generation seeds which survived under treatment of 1 μM tiafenacil, among the CyPPO2 and CyPPO8 transformants, Arabidopsis thaliana seeds were sown in ½ MS medium (1.125 g/L of MS salt, 10 g/L of sucrose, 7 g/L of Agar) containing 70 nM tiafenacil. […] Therefore, survival under 70 nM tiafenacil means that a plant has resistance against tiafenacil.
(§2) In Arabidopsis thaliana transformant including CyPPO2 or CyPPO8 gene, which was obtained by transformation using the plant transformation vector prepared in Example 6, the PPO activity-inhibiting herbicide-resistant gene and glufosinate-resistant gene are expressed at the same time. Therefore, it was examined whether cross-treatment of Arabidopsis thaliana transformant with two herbicides, namely, PPO activity-inhibiting herbicide and glufosinate is effective for weed control. To this end, seeds of CyPPO2 and BAR gene-inserted Arabidopsis thaliana transformant, or CyPPO8 and BAR gene-inserted Arabidopsis thaliana transformant were sterilized and treated at low temperature of 4° C. for 2 days. The seeds were sown in a ½ MS medium (Duchefa), a ½MS medium containing 70 nM Tiafenacil, a ½MS medium containing 50 uM glufosinate, or a ½MS medium containing 70 nM Tiafenacil and 50 uM glufosinate, and grown at 23° C. under 16 hour-light/8 hour-dark conditions for 7-14 days. Arabidopsis thaliana on the herbicide media was CyPPO2 or CyPPO8-transformed seed and the wild-type Col0 as a control, respectively. The transformant and the control were cultured on herbicide media. After 2 weeks, they were examined.
(§3) In Example 9, it was confirmed that Arabidopsis thaliana transformant prepared in the present invention has resistance against the two PPO-based herbicides, Tiafenacil and Saflufenacil at the same time, and therefore, it was tested whether the cross-treatment of Arabidopsis thaliana transformant with Tiafenacil and Saflufenacil is effective for weed control. To this end, seeds of CyPPO2 or CyPPO8 gene-inserted Arabidopsis thaliana transformant were sterilized and treated at low temperature of 4° C. for 2 days. The seeds were sown in a ½ MS medium, a ½MS medium containing 70 nM Tiafenacil, a ½MS medium containing 70 nM Saflufenacil, or a ½MS medium containing 35 nM Tiafenacil and 35 nM Saflufenacil, and grown at 23° C. under 16 hour-light/8 hour-dark conditions for 7-14 days. Arabidopsis thaliana on the herbicide media was CyPPO2 or CyPPO8-transformed seed and the wild-type Col0 as a control, respectively. The transformant and the control were cultured on herbicide media. After 2 weeks, they were examined.

CyPPO8 transformants = type: in vivo, Arabidopsis thaliana; conditions: CyPPO8 and BAR gene-inserted; ½ MS medium with 70 nM Tiafenacil, 50 uM glufosinate, or both
Protocol: as §1, §2, §3

[1] = test system: wild-type Arabidopsis thaliana (Col-0); type: in vivo; conditions: ½ MS medium with 70 nM Tiafenacil, 50 uM glufosinate, or 70 nM Tiafenacil and 50 uM glufosinate
Protocol: as §1, §2, §3

Compound: CP(=O)(O)CCC(N)C(=O)O (stereo not drawn) [glufosinate]
- germination / growth on herbicide medium after 2 weeks (CyPPO2 transformants): normally grew
- germination / growth on herbicide medium after 2 weeks (CyPPO8 transformants): normally grew
- germination / growth on herbicide medium after 2 weeks [1]: not germinated
